Laboratory results published in patent US20250092043A1, “Kinase Inhibitors and Degraders” (Incyte Corporation, priority 2023, published 2025).

The compounds below were run against T1, JAK2 (Homo sapiens, UniProt O60674, V617F) (assay: Western blot quantitation of JAK2 degradation in SET2 cells). Conditions: 5 μM compound, 8 hours treatment, western blot densitometry vs. DMSO vehicle.
T1 construct: their effect on JAK2 protein degradation in SET2 cells; host or cells: SET2 cells (human essential thrombocythemia)
Type: cell-based
Method: Example E. Western Blot Analysis of JAK2 Dependent SET2 Cells Treated with Compounds of the Present Disclosure
SET2 cells (DSMZ, catalog number ACC 608) are isolated from a person with human essential thrombocythemia and carry the JAK2 V617F mutation.
SET2 cells were cultured in RPMI culture medium (Gibco, catalog number 11875085) supplemented with 1% penicillin-streptomycin-glutamine (Thermo Fisher Scientific, catalog number 10378016) and 20% fetal bovine serum (Gibco, catalog number 10438034). Cultured cells were maintained at 37° C., 5% CO2 in the incubator.
Approximately 1,000,000 cells/well were added in 6-well plate containing 1.5 ml culture media with specified concentrations of compounds of the present disclosure or DMSO control. Cells were treated with concentrations of 10 uM, 5 uM, 1 uM, and 0.5 uM. Proteasome inhibitor MG-132 (Cell signaling, catalog number 2194) was added at 20 uM to an additional 10 uM compound treatment. The treatment period was 8 hours. After 8 hours, cells were collected in 1.5 mL microcentrifuge tubes. Tubes were centrifuged at 1500 rpm for 5 min. Supernatant was aspirated and samples were washed with 1 mL of cold PBS. The samples were centrifuged again at 1500 rpm for 5 min, supernatant was aspirated. The sample pellets were lysed using 150 μL of 1× lysing buffer (Cell Signaling Technologies—catalog number 9803S) supplemented with 1× Halt™ Protease and Phosphatase Inhibitor Cocktail (Thermo Fisher Scientific—catalog number 78447). Using Pierce™ BCA Protein Assay Kit (Thermo Fisher Scientific—catalog number 23225), protein concentration of the samples were quantitated. After normalizing sample concentration to approximately 20 ug/well, samples were loaded onto 4-12% Tris-glycine gels. Gels were transferred to nitrocellulose membranes using iBlot 2 Dry Blotting System and iBlot™ 2 Transfer Stacks, nitrocellulose (Thermo Fisher Scientific—catalog number IB23001). Following transfer, membranes were blocked with StartingBlock (Thermo Fisher Scientific—catalog number 37543). After 1 hour of blocking membranes, they were probed for JAK2, pSTAT5, STAT5, CRBN, and GAPDH (Cell Signaling—catalog numbers 3230, 4322, 25656, 71810, and 5174 respectively).
Compounds of the present disclosure were screened at various concentrations to determine their effect on JAK2 protein degradation in SET2 cells, using methods as described above. DMSO was used as the vehicle control with no PROTAC® added. Co-administration of 20 μM of the proteasome inhibitor MG-132 with the PROTAC® compound at its highest concentration (i.e., 5 or 10 μM) tested was conducted to support the hypothesis that the degradation was driven by the ubiquitin-proteosome system (UPS). Degradation was evaluated by western blot densitometry quantitation using the FluorChem M instrument software to analyze the intensity of the JAK2 band signal at various concentrations of PROTAC® compound vs. the JAK2 band signal of the DMSO vehicle. It is noted that ˜82% of JAK2 exists as the V617F mutant, with the remaining 18% of JAK2 being WT. Therefore, if the V617F mutant JAK2 is selectively degraded over the WT, the maximum degradation is ˜80%. Degradation was graded as A: […]; B: ≥40% to <60% degradation; C: ≥20% to <40% degradation, D: <20% to ≥10%; E<10%. ** refers to degradation at 0.5 μM.

T1 sequence (O60674 whole entry V617F): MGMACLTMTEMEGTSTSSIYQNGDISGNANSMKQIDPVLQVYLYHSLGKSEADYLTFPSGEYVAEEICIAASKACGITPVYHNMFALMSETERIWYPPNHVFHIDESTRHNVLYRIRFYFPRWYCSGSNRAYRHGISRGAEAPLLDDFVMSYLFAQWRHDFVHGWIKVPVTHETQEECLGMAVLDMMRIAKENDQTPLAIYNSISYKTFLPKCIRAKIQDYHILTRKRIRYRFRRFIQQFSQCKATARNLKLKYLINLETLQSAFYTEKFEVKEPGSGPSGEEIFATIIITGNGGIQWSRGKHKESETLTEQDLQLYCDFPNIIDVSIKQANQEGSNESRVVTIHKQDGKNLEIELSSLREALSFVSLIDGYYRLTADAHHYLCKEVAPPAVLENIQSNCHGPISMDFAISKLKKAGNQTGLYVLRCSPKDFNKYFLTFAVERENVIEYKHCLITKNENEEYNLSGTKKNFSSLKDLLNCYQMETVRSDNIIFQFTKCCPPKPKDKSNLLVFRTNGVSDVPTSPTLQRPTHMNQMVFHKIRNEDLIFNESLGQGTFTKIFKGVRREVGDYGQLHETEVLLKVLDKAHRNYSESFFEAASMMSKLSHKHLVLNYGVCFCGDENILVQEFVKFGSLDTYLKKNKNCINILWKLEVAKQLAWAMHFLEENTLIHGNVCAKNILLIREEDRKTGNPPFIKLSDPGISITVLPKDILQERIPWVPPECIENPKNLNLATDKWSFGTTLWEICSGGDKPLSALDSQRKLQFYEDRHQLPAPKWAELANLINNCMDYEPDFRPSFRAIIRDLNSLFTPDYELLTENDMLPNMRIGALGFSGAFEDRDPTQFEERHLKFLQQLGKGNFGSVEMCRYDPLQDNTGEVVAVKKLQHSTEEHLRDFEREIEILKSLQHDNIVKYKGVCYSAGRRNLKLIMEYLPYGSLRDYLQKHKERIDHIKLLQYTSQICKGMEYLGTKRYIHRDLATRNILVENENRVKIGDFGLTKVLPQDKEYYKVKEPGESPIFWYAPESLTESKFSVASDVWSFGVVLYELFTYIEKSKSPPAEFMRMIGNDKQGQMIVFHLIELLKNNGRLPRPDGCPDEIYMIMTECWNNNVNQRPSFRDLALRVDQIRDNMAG

Compound | JAK2 % Degradation in SET2
COC(=O)N[C@@H]1CC[C@@H](n2c(=O)n(C)c3cnc4[nH]c(-c5ccc(C(=O)N6CCN(CC7CCN(c8cccc9c8C(=O)N(C8CCC(=O)NC8=O)C9=O)CC7)CC6)cc5)c(-c5ccc6c(cnn6C(C)C)c5)c4c32)C1 (stereo partly drawn) [Example 38, methyl ((1R,3R)-3-(7-(4-(4-((1-(2-(2,6-dioxopiperidin-3-yl)-1,3-dioxoisoindolin-4-yl)piperidin-4-yl)methyl)piperazine-1-carbonyl)phenyl)-8-(1-isopropyl-1H-indazol-5-yl)-3-methyl-2-oxo-3,6-dihydroimidazo[4,5-d]pyrrolo[2,3-b]pyridin-1(2H)-yl)cyclopentyl) carbamate] | A (A: ≥600% degradation)
COC(=O)N[C@@H]1CC[C@@H](n2c(=O)n(C)c3cnc4[nH]c(-c5ccc(CN6CCC(CN7CCN(c8ccc9c(c8)CN(C8CCC(=O)NC8=O)C9=O)CC7)CC6)cc5)c(-c5ccc6c(cnn6C(C)C)c5)c4c32)C1 (stereo partly drawn) [Example 43, Methyl((1R,3R)-3-(7-(4-((4-((4-(2-(2,6-dioxopiperidin-3-yl)-1-oxoisoindolin-5-yl)piperazin-1-yl)methyl)piperidin-1-yl)methyl)phenyl)-8-(1-isopropyl-1H-indazol-5-yl)-3-methyl-2-oxo-3,6-dihydroimidazo[4,5-d]pyrrolo[2,3-b]pyridin-1(2H)-yl)cyclopentyl)carbamate] | A (A: ≥600% degradation)

The remaining lines, values ahead:

JAK2 % Degradation in SET2 | Compound
C (C: ≥20% to <40% degradation) | COC(=O)N[C@@H]1CC[C@@H](n2c(=O)n(C)c3cnc4[nH]c(-c5ccc(C(=O)N6CCC(C(=O)N7CCN(c8cccc9c8C(=O)N(C8CCC(=O)NC8=O)C9=O)CC7)CC6)cc5)c(-c5ccc6c(cnn6C(C)C)c5)c4c32)C1 (stereo partly drawn) [Example 37, methyl ((1R,3R)-3-(7-(4-(4-(4-(2-(2,6-dioxopiperidin-3-yl)-1,3-dioxoisoindolin-4-yl)piperazine-1-carbonyl)piperidine-1-carbonyl)phenyl)-8-(1-isopropyl-1H-indazol-5-yl)-3-methyl-2-oxo-3,6-dihydroimidazo[4,5-d]pyrrolo[2,3-b]pyridin-1(2H)-yl)cyclopentyl) carbamate]
C (C: ≥20% to <40% degradation) | COC(=O)N[C@@H]1CC[C@@H](n2c(=O)n(C)c3cnc4[nH]c(-c5cnn(CC(=O)N6CCC(CN7CCN(c8cccc9c8C(=O)N(C8CCC(=O)NC8=O)C9=O)CC7)CC6)c5)c(-c5ccc6c(cnn6C(C)C)c5)c4c32)C1 (stereo partly drawn) [Example 40, methyl ((1R,3R)-3-(7-(1-(2-(4-((4-(2-(2,6-dioxopiperidin-3-yl)-1,3-dioxoisoindolin-4-yl)piperazin-1-yl)methyl)piperidin-1-yl)-2-oxoethyl)-1H-pyrazol-4-yl)-8-(1-isopropyl-1H-indazol-5-yl)-3-methyl-2-oxo-3,6-dihydroimidazo[4,5-d]pyrrolo[2,3-b]pyridin-1(2H)-yl)cyclopentyl) carbamate]
C (C: ≥20% to <40% degradation) | COC(=O)N[C@@H]1CC[C@@H](n2c(=O)n(C)c3cnc4[nH]c(-c5cnn(CC(=O)N6CCC(CN7CCN(c8ccc9c(c8)CN(C8CCC(=O)NC8=O)C9=O)CC7)CC6)c5)c(-c5ccc6c(cnn6C(C)C)c5)c4c32)C1 (stereo partly drawn) [Example 41, methyl ((1R,3R)-3-(7-(1-(2-(4-((4-(2-(2,6-dioxopiperidin-3-yl)-1-oxoisoindolin-5-yl)piperazin-1-yl)methyl)piperidin-1-yl)-2-oxoethyl)-1H-pyrazol-4-yl)-8-(1-isopropyl-1H-indazol-5-yl)-3-methyl-2-oxo-3,6-dihydroimidazo[4,5-d]pyrrolo[2,3-b]pyridin-1(2H)-yl)cyclopentyl) carbamate]
A (A: ≥600% degradation) | COC(=O)N[C@@H]1CC[C@@H](n2c(=O)n(C)c3cnc4[nH]c(-c5ccc(CN6CCN(CC7CCN(c8cccc9c8C(=O)N(C8CCC(=O)NC8=O)C9=O)CC7)CC6)cc5)c(-c5ccc6c(cnn6C(C)C)c5)c4c32)C1 (stereo partly drawn) [Example 42, Methyl((1R,3R)-3-(7-(4-((4-((1-(2-(2,6-dioxopiperidin-3-yl)-1,3-dioxoisoindolin-4-yl)piperidin-4-yl)methyl)piperazin-1-yl)methyl)phenyl)-8-(1-isopropyl-1H-indazol-5-yl)-3-methyl-2-oxo-3,6-dihydroimidazo[4,5-d]pyrrolo[2,3-b]pyridin-1(2H)-yl)cyclopentyl)carbamate]
C (C: ≥20% to <40% degradation) | COC(=O)N[C@@H]1CC[C@@H](n2c(=O)n(C)c3cnc4[nH]c(-c5ccc(CN6CCC(CN7CCN(c8cccc9c8C(=O)N(C8CCC(=O)NC8=O)C9=O)CC7)CC6)cc5)c(-c5ccc6c(cnn6C(C)C)c5)c4c32)C1 (stereo partly drawn) [Example 44, Methyl((1R,3R)-3-(7-(4-((4-((4-(2-(2,6-dioxopiperidin-3-yl)-1,3-dioxoisoindolin-4-yl)piperazin-1-yl)methyl)piperidin-1-yl)methyl)phenyl)-8-(1-isopropyl-1H-indazol-5-yl)-3-methyl-2-oxo-3,6-dihydroimidazo[4,5-d]pyrrolo[2,3-b]pyridin-1(2H)-yl)cyclopentyl)carbamate]

Same assay, conditions: 10 μM compound, 8 hours treatment, western blot densitometry vs. DMSO vehicle

JAK2 % Degradation in SET2 | Compound
A (A: ≥600% degradation) | COC(=O)N[C@@H]1CC[C@@H](n2c(=O)n(C)c3cnc4[nH]c(-c5ccc(C(=O)N6CCC(CN7CCN(c8ccc9c(c8)CN(C8CCC(=O)NC8=O)C9=O)CC7)CC6)cc5)c(-c5ccc6c(cnn6C(C)C)c5)c4c32)C1 (stereo partly drawn) [Example 35, methyl ((1R,3R)-3-(7-(4-(4-((4-(2-(2,6-dioxopiperidin-3-yl)-1-oxoisoindolin-5-yl)piperazin-1-yl)methyl)piperidine-1-carbonyl)phenyl)-8-(1-isopropyl-1H-indazol-5-yl)-3-methyl-2-oxo-3,6-dihydroimidazo[4,5-d]pyrrolo[2,3-b]pyridin-1(2H)-yl)cyclopentyl) carbamate]
A (A: ≥600% degradation) | COC(=O)N[C@@H]1CC[C@@H](n2c(=O)n(C)c3cnc4[nH]c(-c5ccc(C(=O)N6CCC(CN7CCN(c8ccc9c(c8)CN(C8CCC(=O)NC8=O)C9=O)CC7)CC6)c(F)c5)c(-c5ccc6c(cnn6C(C)C)c5)c4c32)C1 (stereo partly drawn) [Example 36, methyl ((1R,3R)-3-(7-(4-(4-((4-(2-(2,6-dioxopiperidin-3-yl)-1-oxoisoindolin-5-yl)piperazin-1-yl)methyl)piperidine-1-carbonyl)-3-fluorophenyl)-8-(1-isopropyl-1H-indazol-5-yl)-3-methyl-2-oxo-3,6-dihydroimidazo[4,5-d]pyrrolo[2,3-b]pyridin-1(2H)-yl)cyclopentyl) carbamate]
D (D: <20% to ≥10%) | CN[C@@H](C)C(=O)N[C@H](C(=O)N1C[C@@H](NC(=O)CC2CCN(C(=O)c3ccc(-c4[nH]c5ncc6c(c5c4-c4ccc5c(cnn5C(C)C)c4)n([C@@H]4CC[C@@H](NC(=O)OC)C4)c(=O)n6C)cc3F)CC2)C[C@H]1C(=O)N[C@@H]1CCCc2ccccc21)C1CCCCC1 [Example 46, Methyl((1R,3R)-3-(7-(4-(4-(2-(((3S,5S)-1-((S)-2-cyclohexyl-2-((S)-2-(methylamino)propanamido)acetyl)-5-(((R)-1,2,3,4-tetrahydronaphthalen-1-yl)carbamoyl)pyrrolidin-3-yl)amino)-2-oxoethyl)piperidine-1-carbonyl)-3-fluorophenyl)-8-(1-isopropyl-1H-indazol-5-yl)-3-methyl-2-oxo-3,6-dihydroimidazo[4,5-d]pyrrolo[2,3-b]pyridin-1(2H)-yl)cyclopentyl)carbamate]
